Our source for the IC50 and ED50 values is ChEMBL document CHEMBL1130817, “Sulfonamide derivatives of benzylamine block cholesterol biosynthesis in HepG2 cells: a new type of potent squalene epoxidase inhibitors” (Bioorg Med Chem Lett, 1998).

Sequence of Squalene monooxygenase (Homo sapiens, UniProt Q14534) (Q14534 whole entry): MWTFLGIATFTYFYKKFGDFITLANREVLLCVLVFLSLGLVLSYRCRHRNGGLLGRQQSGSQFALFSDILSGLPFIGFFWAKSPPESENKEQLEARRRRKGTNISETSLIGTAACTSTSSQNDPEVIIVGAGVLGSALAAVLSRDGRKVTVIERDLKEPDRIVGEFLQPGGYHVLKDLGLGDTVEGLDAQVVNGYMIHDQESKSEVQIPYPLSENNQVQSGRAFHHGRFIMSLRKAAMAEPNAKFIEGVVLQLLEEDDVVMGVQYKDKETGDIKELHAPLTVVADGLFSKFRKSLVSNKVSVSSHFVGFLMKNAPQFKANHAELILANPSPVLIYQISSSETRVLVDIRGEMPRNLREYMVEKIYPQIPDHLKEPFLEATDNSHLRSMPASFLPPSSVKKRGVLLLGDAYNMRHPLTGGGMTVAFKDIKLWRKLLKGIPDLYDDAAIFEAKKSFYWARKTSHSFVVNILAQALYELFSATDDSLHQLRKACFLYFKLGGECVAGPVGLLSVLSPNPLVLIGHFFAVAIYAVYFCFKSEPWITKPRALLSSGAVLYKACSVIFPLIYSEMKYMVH
Sequence of Squalene monooxygenase (Rattus norvegicus, UniProt P52020) (P52020 whole entry): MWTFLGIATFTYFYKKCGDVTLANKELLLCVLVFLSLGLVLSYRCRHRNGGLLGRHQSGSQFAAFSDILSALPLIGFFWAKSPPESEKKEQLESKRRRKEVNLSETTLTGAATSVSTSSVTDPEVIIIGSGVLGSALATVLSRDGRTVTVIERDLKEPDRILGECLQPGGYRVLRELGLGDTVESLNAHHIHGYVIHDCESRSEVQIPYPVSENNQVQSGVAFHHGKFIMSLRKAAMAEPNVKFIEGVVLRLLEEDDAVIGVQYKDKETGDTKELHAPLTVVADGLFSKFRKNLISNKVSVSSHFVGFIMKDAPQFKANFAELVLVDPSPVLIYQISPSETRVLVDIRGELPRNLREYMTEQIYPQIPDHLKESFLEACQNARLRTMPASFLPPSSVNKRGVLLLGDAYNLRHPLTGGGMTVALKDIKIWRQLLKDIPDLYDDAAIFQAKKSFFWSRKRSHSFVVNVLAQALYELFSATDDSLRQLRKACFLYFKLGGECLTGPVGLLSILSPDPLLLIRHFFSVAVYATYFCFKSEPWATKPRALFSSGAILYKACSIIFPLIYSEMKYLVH

The first test concerns the target Squalene monooxygenase (Homo sapiens, UniProt Q14534). Nature of the test: In vitro inhibition of cholesterol biosynthesis in human HepG2 cells. The test is classed as functional, cell-based.
Compound `CCN(C/C=C/C#CC(C)(C)C)Cc1cccc(OCCN(C)S(=O)(=O)c2cccnc2)c1` registered an IC50 of 150 nM.

The compound `CCN(C/C=C/C#CC(C)(C)C)Cc1cccc(OCCN(C)S(=O)(=O)c2ccc(-c3ccsc3)s2)c1` yielded a 50% inhibitory concentration (IC50) of 210 nM.

Regarding `CCN(C/C=C/C#CC(C)(C)C)Cc1cccc(OCCN(C)S(=O)(=O)c2ccc(F)cc2)c1`, the IC50 is 255 nM. The IC50 values of the last two compounds are within 1.5-fold of each other.

`CCN(C/C=C/C#CC(C)(C)C)Cc1cccc(OCCN(C)S(=O)(=O)c2ccc(-c3cccs3)s2)c1` yielded an IC50 of 10000 nM. This IC50 is about 39-fold higher than that of the compound before.

As for `CCN(C/C=C/C#CC(C)(C)C)Cc1cccc(OCCN(C)S(=O)(=O)c2cccs2)c1`, the half-inhibitory concentration (IC50) was found to be 60 nM.

Turning to `CCN(C/C=C/C#CC(C)(C)C)Cc1cccc(OCCCN(C)S(=O)(=O)c2cccs2)c1`, the IC50 was determined as 6400 nM.

Compound `CCN(C/C=C/C#CC(C)(C)C)Cc1cccc(OCCN(C)S(=O)(=O)c2cc(-c3ccsc3)cs2)c1` showed an IC50 of 90 nM.

`CCN(C/C=C/C#CC(C)(C)C)Cc1cccc(OCCN(C)S(=O)(=O)c2ccc(Br)cc2)c1` yielded a 50% inhibitory concentration (IC50) of 330 nM.

On to `CCN(C/C=C/C#CC(C)(C)C)Cc1cccc(OCCN(C)S(=O)(=O)c2ccc(C#N)cc2)c1`, for which the 50% inhibitory concentration (IC50) stood at 200 nM.

The compound `CCN(C/C=C/C#CC(C)(C)C)Cc1cccc(OCCN(C)S(=O)(=O)c2ccsc2)c1` displayed a half-maximal inhibitory concentration (IC50) of 250 nM.

In turn, `CCN(C/C=C/C#CC(C)(C)C)Cc1cccc(OCCN(C)S(=O)(=O)c2cc3ccccc3s2)c1` gave a half-inhibitory concentration (IC50) of 1800 nM.

Regarding `CCN(C/C=C/C#CC(C)(C)C)Cc1cccc(OCCNS(=O)(=O)c2cccs2)c1`, half-maximal inhibition (IC50) required 450 nM. Compared with the last compound, the IC50 is about 4-fold lower.

Regarding `CCN(C/C=C/C#CC(C)(C)C)Cc1cccc(OCCN(CC)S(=O)(=O)c2cccs2)c1`, the IC50 was 90 nM.

In turn, `CCN(C/C=C/C#CC(C)(C)C)Cc1cccc(OCCN(C)S(=O)(=O)c2nccs2)c1` displayed an IC50 of 170 nM.

Take `CCN(C/C=C/C#CC(C)(C)C)Cc1cccc(OCCN(C)S(=O)(=O)c2ccc(Br)s2)c1`: the IC50 is 390 nM.

For `CCN(C/C=C/C#CC(C)(C)C)Cc1cccc(OCCN(C2CC2)S(=O)(=O)c2cccs2)c1`, the IC50 is 230 nM.

`CCN(C/C=C/C#CC(C)(C)C)Cc1cccc(OCCN(C)S(=O)(=O)c2cc(Br)cs2)c1` came in with a half-maximal inhibitory concentration (IC50) of 300 nM.

In turn, `CCCN(CCOc1cccc(CN(CC)C/C=C/C#CC(C)(C)C)c1)S(=O)(=O)c1cccs1` displayed an IC50 of 170 nM.

`CCN(C/C=C/C#CC(C)(C)C)Cc1cccc(OCCCS(=O)(=O)c2cccs2)c1` registered a 50% inhibitory concentration (IC50) of 290 nM. This IC50 is about 1.7-fold higher than that of the compound before.

With `CCN(C/C=C/C#CC(C)(C)C)Cc1cccc(OCCN(C)S(=O)(=O)Cc2cccs2)c1`, it took 200 nM to reach half-maximal inhibition (IC50).

For the next test, the target named is Squalene monooxygenase (Rattus norvegicus) (UniProt P52020). The test can be described thus: Compound was evaluated in vivo for the inhibition of rat mammalian squalene epoxidase […]. The class given is organism-based.
Sequence of Squalene monooxygenase (Rattus norvegicus) (P52020 whole entry, looked up): as the sequence (P52020 whole entry) above
Compound `CCN(C/C=C/C#CC(C)(C)C)Cc1cccc(OCc2cc(-c3ccsc3)cs2)c1` yielded an ED50 of 2.5 mg/kg.

For another test the target is unchanged. Nature of the test: Compound was evaluated in vivo for the inhibition of rat squalene epoxidase […]; Inactive. The test is classed as organism-based.
As for `CCN(C/C=C/C#CC(C)(C)C)Cc1cccc(OCCN(C)S(=O)(=O)c2cccs2)c1`, the 50% effective dose (ED50) stood at 40 mg/kg.

A further test has as its target Squalene monooxygenase (Rattus norvegicus, UniProt P52020). The test can be described thus: In vitro inhibition of rat liver squalene epoxidase […]. The test is classed as cell-based.
Take `CCN(C/C=C/C#CC(C)(C)C)Cc1cccc(OCCN(C)S(=O)(=O)c2cccs2)c1`: the midpoint of inhibition, the IC50, lay at 6 µM.
